Two molecules from patent EP4700025A1, “AMIDE COMPOUND, PHARMACEUTICAL COMPOSITION COMPRISING SAME, AND USE THEREOF” (Suzhou Genhouse Bio Co., Ltd., priority 2023, dated 2024) can be followed below.

Where two headings read alike, the source gives them in different places.

Data set [1] is described as follows: Pharmacokinetic assay in mice. In kind it is in vivo, Balb/c mice. As to conditions: mouse; for MRT inf: read-out: MRT(0-∞). Here is the method:
Eighteen male Balb/c mice aged 6 to 8 weeks were randomly divided into 2 groups (IV group and PO group). The corresponding compounds were administered to the animals in the IV group by tail intravenous injection at 2 mg/kg, and the corresponding compounds were administered to the animals in the PO group by oral gavage at 10 mg/kg or 100 mg/kg. The animals in the IV group were allowed free access to food and water, and the animals in the PO group were fasted overnight before administration and were fed 4 h after administration. Throughout the experiment, the animals were allowed free access to water. Plasma samples were separately collected at 0.083 h (only group IV), 0.25 h, 0.5 h, 1 h, 2 h, 4 h, 8 h, and 24 h after administration. About 100 µL of blood was collected from the orbit of the animal, placed into a 1.5 mL anticoagulation centrifuge tube, and centrifuged at 8000 rpm and 4 °C for 10 min. The upper plasma sample was transferred to an EP tube. The plasma samples were stored in a refrigerator at -80 °C until sample analysis. Pharmacokinetic parameters of the drug were calculated based on the drug concentration-time data, including the peak concentration Cmax, peak time Tmax, clearance rate CL, steady state apparent volume of distribution Vss, area under drug-time curve AUC, elimination half-life t1/2, bioavailability, and the like. Data below the 80% lower limit of quantification were excluded from the calculation of pharmacokinetic parameters.

Data set [2] is described as follows: Pharmacokinetic assay in rats. As to conditions: rat. It counts as in vivo, SD rats. On the procedure: In this experimental example, the pharmacokinetic behavior of the test compounds after administration by intravenous injection (IV) and oral gavage (PO) in SD rats was tested.
On the day of administration, rats were weighed for actual body weight, and the administration volume was calculated. Each compound was tested in two groups with 3 rats in each group; one group was subjected to administration by single intravenous injection, and the other group was subjected to administration by single oral gavage. The whole blood samples were collected via the jugular vein at prescribed time points (0.25 h, 0.5 h, 1 h, 2 h, 4 h, 8 h, and 24 h after administration). After the blood sample collection, the samples were immediately transferred to labeled commercial sample tubes containing K2-EDTA (0.85-1.15 mg), followed by centrifugation (3200× g, 4 °C, 10 min) and plasma collection. The plasma was transferred to a pre-cooled centrifuge tube, frozen in dry ice, and then stored in an ultra-low temperature freezer at -60 °C or lower until the LC-MS/MS analysis was performed.
Plasma concentrations were determined by the LC-MS/MS method. Plasma drug concentration data for the compounds were processed using a non-compartmental model in the WinNonlin Version 6.3 (Pharsight, Mountain View, CA) pharmacokinetic software. The relevant pharmacokinetic parameters were calculated by a linear-log trapezoidal method.

Data set [3] concerns the target T1, hERG Potassium Ion Channel (Homo sapiens, UniProt Q12809).
T1 construct: expressed in transfected cells; host or cells: HEK293
Description: Effect on hERG potassium ion channel (whole-cell patch clamp, HEK293 cells). As to conditions: whole-cell patch clamp (Qpatch), room temperature. In kind it is cell-based. On the procedure: HEK293 cells were cultured in a DMEM medium containing 10% fetal bovine serum and 0.8 mg/mL G418 at 37 °C with 5% CO2. The cells were digested by TrypLE™ Express and then centrifuged. The cell density was adjusted to 2 × 10^6 cells/mL. The cells were then gently mixed for 15 to 20 min using a shaker equilibrated at room temperature, and subjected to a patch clamp assay on a machine. The culture medium of the prepared cells was replaced with extracellular fluid. The intracellular fluid and the extracellular fluid were taken from the fluid pool and added to the intracellular fluid pool and the cell and test substance pool of the QPlate chip, respectively. The voltage stimulation of the whole-cell hERG potassium current was recorded by the whole-cell patch clamp, and the experimental data were collected and stored by Qpatch. […] The current detected in compound-free extracellular fluid for each cell served as its own control group, and the detection was repeated twice independently using at least two cells per concentration. […] For data analysis, the current after the action of each drug concentration and the current of the blank control were standardized ((Peak tail currentcompound)/(Peak tail currentvehicle)) [formula] , and then the inhibition rate corresponding to each drug concentration was calculated (1−(Peak tail currentcompound)/(Peak tail currentvehicle)) [formula] . […]

The target of a further data set is PRMT5 (Homo sapiens, UniProt O14744). Description: Inhibitory activity against enzymatic activity of PRMT5 (fluorescence polarization). In kind it is biochemical. As to conditions: PRMT5 25 nM, SAM 1 µM, polypeptide 1 µM, MTA 2 µM; 37 °C 2 hours. Here is the method: The compounds were prepared into 10 mM stock solutions using DMSO, and then 9 concentration gradients (with an initial concentration of 10 µM followed by 1:5 dilution) were prepared using a buffer (50 mM Tris-HCl pH 8.5, 5 mM MgCl2, 4 mM DTT, 0.01% Triton X-100, 0.1 M NaCl, 0.5% DMSO), and each well received 5 µL of the diluted compound solutions. SAM, a polypeptide, and MTA were prepared using a buffer to final concentrations of 1 µM, 1 µM, and 2 µM, respectively, and were added to each well in a total of 5 µL. Meanwhile, an MTA-free group was set as a control. […] Subsequently, a mixture of 2.5 µL of stop buffer A, 2.5 µL of an 8× MT assay mixture (final concentration: 1×), and 24 µg/mL AMP2/GMP2 antibodies (final concentration: 3 µg/mL) was added. The resulting mixture was incubated at room temperature for 1.5 hours, and fluorescence polarization (FP) was measured (Ex 633, Em 647). Meanwhile, negative control wells without protein (Blank) and positive control wells without compound (DMSO) were set. Each experiment was independently repeated three times.
Sequence of PRMT5 (O14744 whole entry): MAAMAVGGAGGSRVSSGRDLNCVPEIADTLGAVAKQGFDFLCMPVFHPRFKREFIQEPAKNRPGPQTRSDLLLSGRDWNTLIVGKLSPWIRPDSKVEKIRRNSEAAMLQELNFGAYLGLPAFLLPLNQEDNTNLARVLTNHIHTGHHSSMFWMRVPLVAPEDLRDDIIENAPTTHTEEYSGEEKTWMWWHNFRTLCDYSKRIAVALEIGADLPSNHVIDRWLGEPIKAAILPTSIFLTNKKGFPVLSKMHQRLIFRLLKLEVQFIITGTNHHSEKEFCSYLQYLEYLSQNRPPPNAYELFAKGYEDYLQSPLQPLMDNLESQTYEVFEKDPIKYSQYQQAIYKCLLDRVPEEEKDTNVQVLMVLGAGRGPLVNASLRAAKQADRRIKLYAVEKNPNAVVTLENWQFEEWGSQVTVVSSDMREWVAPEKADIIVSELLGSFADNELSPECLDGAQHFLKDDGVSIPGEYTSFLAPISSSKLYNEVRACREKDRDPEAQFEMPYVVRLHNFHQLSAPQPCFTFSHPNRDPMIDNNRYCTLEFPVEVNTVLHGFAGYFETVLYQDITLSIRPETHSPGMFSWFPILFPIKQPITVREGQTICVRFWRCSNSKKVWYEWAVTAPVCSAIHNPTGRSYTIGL
Sequence of PRMT5 (Q9BQA1 whole entry partner): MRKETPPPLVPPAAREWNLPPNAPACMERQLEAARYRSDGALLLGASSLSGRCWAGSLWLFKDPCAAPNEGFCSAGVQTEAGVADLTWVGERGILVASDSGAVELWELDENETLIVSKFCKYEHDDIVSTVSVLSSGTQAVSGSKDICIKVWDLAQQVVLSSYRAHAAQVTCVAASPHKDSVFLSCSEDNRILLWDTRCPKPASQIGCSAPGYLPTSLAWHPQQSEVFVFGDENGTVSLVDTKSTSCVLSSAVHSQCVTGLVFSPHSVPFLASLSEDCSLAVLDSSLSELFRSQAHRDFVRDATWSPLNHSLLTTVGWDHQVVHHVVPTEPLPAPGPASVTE
Data processing: The numerical values of each group were recorded for statistical analysis, and the inhibition rate was calculated according to the following formula: inhibition percentage of compound wells (% inh) = [1 - (ave Blank - Cpd well)/(ave Blank - ave DMSO control)] × 100. Note: ave represents the average value, and Cpd represents the numerical value of the wells containing the compound. A sigmoidal dose-inhibition rate curve was plotted and fitted using a nonlinear regression model in the GraphPad Prism 7.0 software, and the IC50 value was calculated. Table 1. Inhibitory activity of compounds against enzymatic activity of PRMT5

A further data set concerns HCT-116. Put plainly: CCK8 proliferation inhibition, HCT-116. It counts as cell-based. The settings on record: Homo sapiens, 192 h, CCK8, 8 days after drug treatment.
For another data set, the system named is HCT-116-MTAP^-/-. Description: CCK8 proliferation inhibition, HCT-116-MTAP^-/-. It counts as cell-based. As to conditions: Homo sapiens, 192 h; HCT-116-MTAP^-/- (MTAP-deficient); CCK8, 8 days after drug treatment.
A further data set concerns A549. Put plainly: CCK8 proliferation inhibition, A549. It counts as cell-based. As to conditions: Homo sapiens, 192 h, CCK8, 8 days after drug treatment. Here is the method: The above normally growing cells were digested with a cell trypsinization solution, centrifuged, counted, and seeded into a 96-well plate at an appropriate cell density (2000 cells/well) at 100 µL/well. The next day after cell seeding, the compounds at different concentrations were added to the wells. Three replicate wells were set for each concentration point, and a corresponding DMSO negative control group was also set. CCK8 solution was added to each well 8 days after drug treatment. The plate was incubated at 37 °C for a period of time (OD450 of the vehicle group reached 1.0 or higher) before the absorbance at 450 nm was read using a microplate reader. The inhibition rates were calculated, and the EC50 values were determined by fitting using the GraphPad Prism 7.0 software. Table 2. EC50 values of compounds at cellular level

In data set [4] the test system is SDMA. Put plainly: SDMA Inhibition Assay in HCT-116 cells. In kind it is cell-based. As to conditions: Homo sapiens, HCT-116, 96 hours.
Data set [5] relates to SDMA. Description: SDMA Inhibition Assay in HCT-116-MTAP^-/- cells. In kind it is cell-based. The settings on record: Homo sapiens, 96 hours.
The subject of data set [6] is SDMA. Description: SDMA Inhibition Assay in A549 cells. It counts as cell-based. As to conditions: Homo sapiens, A549, 96 hours.
A further data set deals with HCT-116-MTAP^-/- cells. Description: Pharmacodynamic study, HCT-116-MTAP^-/- subcutaneous xenograft. It counts as in vivo, mouse. As to conditions: HCT-116-MTAP^-/- xenograft, 60 mpk PO QD. Here is the method: Human colon cancer HCT-116-MTAP^-1- cells were cultured in monolayer in vitro using the McCoy 5A culture medium (HyClone) containing 10% fetal bovine serum (BI) and 1% penicillin and streptomycin (Beyotime) in an incubator at 37 °C with 5% CO2. The cells were digested with trypsin 2 to 3 times weekly for passaging. When the saturation degree of the cells was 80% to 90%, the cells were collected, counted, and inoculated. 5 × 10^6 (0.1 mL) HCT-116-MTAP^-/- cells were subcutaneously inoculated on the right back of each mouse. On about day 15 after inoculation of the cells, the mean tumor volume reached 172 mm^3. The mice were randomly grouped for administration (the animals were divided into an administration group and a control group, with 6 animals in each group). The day of grouping was designated as d0, and intragastric administration was started on d1. The administration was performed once daily at an administration volume of 10 mL/kg. Vehicle control was administered to the control group. The tumor volume was measured 2 to 3 times weekly, and meanwhile, the mice were weighed and the data were recorded; daily observations were made to record the body surface signs of the mice. After the experiment was completed, the tumors were collected, weighed, and photographed for recording.
Calculation formula for tumor volume: Tumor volume (mm^3) = 1/2 × (a×b^2) [formula] (note: a represents long diameter and b represents short diameter) [formula]

Where [7] appears, read: male, Balb/c, plasma, 2 mg/kg, IV 2mpk.
Setting [8] is: male, Balb/c, plasma, 100 mg/kg, PO 100mpk.
Where [9] appears, read: SD, plasma, 100 mg/kg, PO 100mpk.
Setting [10] is: male, Balb/c, plasma, 10 mg/kg, PO 10mpk.

T1 sequence (Q12809 whole entry): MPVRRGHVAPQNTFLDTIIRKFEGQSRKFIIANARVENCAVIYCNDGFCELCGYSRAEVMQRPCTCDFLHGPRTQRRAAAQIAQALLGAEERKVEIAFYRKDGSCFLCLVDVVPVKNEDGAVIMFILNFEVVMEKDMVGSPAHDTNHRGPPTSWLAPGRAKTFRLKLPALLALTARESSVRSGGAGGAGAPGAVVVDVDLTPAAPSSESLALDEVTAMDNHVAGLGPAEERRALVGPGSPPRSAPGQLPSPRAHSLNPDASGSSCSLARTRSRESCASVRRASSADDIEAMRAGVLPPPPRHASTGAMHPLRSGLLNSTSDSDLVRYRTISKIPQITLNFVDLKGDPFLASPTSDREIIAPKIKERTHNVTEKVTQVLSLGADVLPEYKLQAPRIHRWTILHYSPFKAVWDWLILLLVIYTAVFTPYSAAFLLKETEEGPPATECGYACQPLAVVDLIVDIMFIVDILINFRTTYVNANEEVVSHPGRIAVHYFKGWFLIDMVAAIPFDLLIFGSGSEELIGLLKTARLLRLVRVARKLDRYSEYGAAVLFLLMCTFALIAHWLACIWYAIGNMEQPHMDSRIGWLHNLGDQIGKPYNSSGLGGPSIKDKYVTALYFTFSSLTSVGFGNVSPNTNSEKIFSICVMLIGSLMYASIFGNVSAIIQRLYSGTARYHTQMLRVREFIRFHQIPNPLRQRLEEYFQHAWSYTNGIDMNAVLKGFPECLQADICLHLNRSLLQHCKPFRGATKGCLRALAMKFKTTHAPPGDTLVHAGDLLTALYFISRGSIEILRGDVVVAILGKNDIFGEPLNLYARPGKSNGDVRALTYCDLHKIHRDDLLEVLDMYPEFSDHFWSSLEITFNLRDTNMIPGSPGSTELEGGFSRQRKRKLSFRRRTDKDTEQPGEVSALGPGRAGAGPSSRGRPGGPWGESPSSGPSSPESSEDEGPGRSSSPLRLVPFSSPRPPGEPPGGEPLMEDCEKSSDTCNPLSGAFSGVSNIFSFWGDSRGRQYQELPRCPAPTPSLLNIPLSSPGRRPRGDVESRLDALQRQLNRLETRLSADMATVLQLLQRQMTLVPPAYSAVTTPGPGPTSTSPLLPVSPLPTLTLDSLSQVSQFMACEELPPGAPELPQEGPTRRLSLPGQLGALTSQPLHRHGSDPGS

For `Cn1ncc2c(N)nc3cnc(C(=O)N4CCOC[C@@H]4c4ccc(C(F)(F)F)cc4)cc3c21` [Control compound A, reference compound], the AUC(0-t) stood at 9.6 µM·h in [1] (setting [7]); 455 µM·h in data set [1] (setting [8]); 4.75 µM·h in data set [2] (SD, plasma, 2 mg/kg, IV 2mpk); 122 µM·h in data set [2] (setting [9]). In addition, the Cmax in data set [1] (setting [8]) came to 35.7 µM; in data set [2] (setting [9]) it was 5.42 µM. The molecule further had a F in data set [2] (PO 100mpk vs IV 2 mpk) of 51%. The same molecule displayed an IC50 in [3] of 13000 nM.

Take `CN(Cc1ccc2c(c1)OC(F)(F)O2)C(=O)c1cc2c(cc1F)nc(N)c1cnn(C)c12` [Example I-1]: inhibition against PRMT5 was half-maximal at 48.5 nM (IC50). In addition, the concentration giving a half-maximal response (EC50) in the data set on HCT-116 was determined as 3230 nM. In the data set with HCT-116-MTAP^-/-, this molecule showed a concentration for a half-maximal effect (EC50) of 4.2 nM. In the data set on A549, the EC50 worked out at 41.8 nM. This molecule also had a concentration giving a half-maximal response (EC50) with SDMA [4] of 220 nM. The molecule also showed an EC50 in the data set on SDMA [5] of 1.5 nM. The response in the data set on SDMA [6] was half-maximal at 1.4 nM (EC50). Further, in data set [1] (setting [7]), the AUC(0-inf) amounted to 5.69 µM·h, the AUC(0-t) was 5.45 µM·h, the C0 worked out at 3.52 µM and the MRT inf was 2.3 h. Further, in [1] (male, Balb/c, plasma, 2 mg/kg, IV 2mpk, read-out: Vz), the Vd worked out at 2 L/kg. Further, in [1] (setting [10]), the AUC(0-inf) was 18.4 µM·h, the AUC(0-t) was 18.1 µM·h, the Cmax turned out to be 3.24 µM and the Tmax worked out at 1 h. For the same molecule, the MRT inf in data set [1] (setting [10]) came out at 5.5 h. Further, in [1] (IV 2mpk), the CLz turned out to be 13 mL/min/kg, the “R_AUC(t/∞)” value stood at 95.8% and the t1/2z is 1.8 h. For the same molecule, in data set [1] (PO 10mpk), the “R_AUC(t/∞)” value stood at 98.3% and the t1/2z is recorded as 4.1 h. In data set [1] (PO 10mpk vs IV 2mpk), this molecule returned an F of 64.7%. Further, in the data set with HCT-116-MTAP^-/- cells, the “Day 28 TGI” value worked out at 85%.

What is called AUC(0-t) is exposure summed from dosing to a finite time, without extrapolation to infinity. Read a low AUC(0-t) as low exposure. For orientation: Cmax means the maximum level reached in the sampled fluid or tissue. The term IC50 denotes the concentration that gives 50% inhibition. Low readings indicate inhibition by little substance, high ones a need for much substance. Broadly, the EC50 is the concentration needed to bring the measured effect to its halfway point. A higher EC50 goes with a need for much substance. In general, AUC(0-inf) refers to the area under the concentration-time curve extrapolated to infinity. A word on the Tmax: it is the time from dosing to the highest level.
